pKd: −log10 of the molar value.
Key:
caspase-3 [1] = experiment: Caspase-3 activity assay in A549 cells; assay type: cell-based, human; conditions: A549, 200 nM, 6 hs
Protocol: (§1) A549 cells were treated with 200 nM CL4 42-81 or the scrambled aptamer for 6 hs. To determine caspase activity cell lysates (50 μg) were incubated at 37° C. for 1 h with 50 μM of a specific fluorometric substrate (Ac-DEVD-AFC for caspase-3, Ac-IETD-AFC for caspase-8, both from Alexis Bichemicals, San Diego, Calif.). Cleavage of the fluorometric substrate were determined using a Fluorometer, with excitation at 400 nm and emission at 505 nm wavelengths.

A549 cells [2] = experiment: Apoptosis assay by PI staining and FACS; assay type: cell-based, human; parameters: dose or concentration left out as unconfirmed
Protocol: For apoptosis assay, DNA content analysis was performed by staining with propidium iodide (PI) and analyzing cells by flow cytometry (FACS).
[…] Cells were incubated with 2 μg/ml propidium iodide (PI, Sigma, St. Louis, Mo.) for 30 min at 4° C. and recovered. The relative proportion of cells with DNA content indicative of apoptosis (ipoploid) was determined by FACS.

glioma T98G = experiment: Binding on T98G cells; parameters: species or system human; conditions: high level of EGFR; 100 nM
Protocol: (§2) Binding experiments were performed with 5′-[^32P]-labeled RNA. For labeling 2′-F-Py RNAs were 5′-end dephosphorylated using bacterial alcaline phosphatase (Invitrogen, Carlsbad, Calif.) before [^32P]-5′-end-labeled using T4 kinase (Invitrogen) and γ-[^32P]-ATP (6×10^3 Ci/mmol, GE Healthcare Bio-Sciences, Uppsala, Sweden) according to the supplier's instructions.
(§3) For binding experiments on cells, 3.5×10^4 cells were plated in 24-well plates in triplicate and were incubated with CL4 42-81 aptamer the scrambled sequence used as a negative control at 100 nM concentration in 200 μl of DMEM serum free for 20 min at RT in the presence of 100 μg/ml polyinosine as a nonspecific competitor (Sigma, St. Louis, Mo.). After five washings with 500 μl DMEM, bound sequences were recovered in 300 μl of SDS 1%, and the amount of radioactivity recovered was counted.

glioma U87MG = experiment: Binding on U87MG cells; parameters: species or system human; conditions: no or very low expression of EGFR; 100 nM
Protocol: as §2, §3

Calu1 cells = experiment: Binding on Calu1 cells; parameters: species or system human; conditions: EGFR-positive; 100 nM
Protocol: as §2, §3

[3] = Half life of the aptamer in serum; assay type: in vitro ADME; conditions: in 10% serum
breast T47D = experiment: Binding on T47D cells; parameters: species or system human; conditions: no or very low expression of EGFR; 100 nM
Protocol: as §2, §3

H460 cells = experiment: Binding on H460 cells; parameters: species or system human; conditions: low level of EGFR; 100 nM
Protocol: as §2, §3

EGFR = EGFR (Homo sapiens, UniProt P00533); experiment: Immunoblot of pEGFR in A549 xenograft tumor lysates; assay type: in vivo, mouse; parameters: from tissue; host or cells: A549 xenograft tumours excised from athymic CD-1 nude mice; conditions: pooled tumor lysates
Protocol: (§4) FIG. 8. (A) A549 cells (2,000 cells/well in 24-well plates) were treated for 24 h or 48 h with CL4 42-81 or CL4 scrambled (200 nM-final concentration) and proliferation was determined by [^3H]-thymidine incorporation. Vertical bars indicate the standard deviation values. […] Day 0 marks the first day of injection. Data are shown as means±s.e.m. (n=8 tumors). (C) Three tumors per group selected randomly were excised, lysed, and the pooled lysates were immunoblotted with anti-pEGFR, anti-EGFR, anti-caspase-3, anti-cleaved caspase-8 and anti-αtubulin antibodies, as indicated. Molecular weights of indicated proteins are reported. (D) Cell lysates as in (C) were analyzed by caspase-3 fluorimetric assays.
(§5) Athymic CD-1 nude mice (nu/nu) were housed in a highly controlled microbiological environment, thus to guarantee specific pathogen free conditions. Mice were injected subcutaneously with 3×10^6 (in 100 μl) in vitro propagated A549. Sixteen non-necrotic tumors of about 0.5 cm in diameter were randomly divided into two groups of eight mice as follows: group 1, CL4 scrambled-treated; group 2, CL4 42-81-treated. Aptamers (200 pmols/injection) were injected intra-tumorally in 100-1 μl volumes three times a week for 16 days. Tumors were measured every 2 days.

caspase-3 [4] = experiment: Caspase-3 in A549 xenograft tumor lysates; assay type: in vivo, mouse; conditions: pooled tumor lysates
Protocol: as §4, §5

[5] = system: epidermoid carcinoma A431 cells; experiment: Binding on A431 cells; parameters: species or system human; conditions: high level of EGFR; 100 nM
Protocol: as §2, §3

A431 cells = experiment: Cell viability assay, A431 cells; assay type: cell-based, human
Protocol: Cell viability was assessed with CellTiter 96® AQueous One Solution Cell Proliferation Assay (Promega, Madison, Wis.) according to according to the supplier's instructions. Cells (4×10^3 cells/well) were plated in 96-well plates in triplicate. and were treated for 24 hs with heat denatured CL4 42-81 or the scrambled aptamer at 3 μM concentration. RNA concentrations were determined to ensure the continuous presence of a concentration of at least 200 nM, which takes into account the 6 hs-half life of the aptamer in 10% serum. The optical density (OD) was measured using a Multilabel Counter (Bio-Rad) at a wavelength of 490 nm and cell viability was calculated by the following formula: Cell viability (%)=(OD treated cells/OD control cells)×100%. FACS Analysis

breast SKBR3 = experiment: Binding on SKBR3 cells; parameters: species or system human; conditions: high level of EGFR; 100 nM
Protocol: as §2, §3

caspase-8 = experiment: Caspase-8 activity assay in A549 cells; assay type: cell-based, human; conditions: A549, 200 nM, 6 hs
Protocol: as §1

[6] = system: A549 cells transfected with a specific EGFR shRNA; experiment: Binding on A549 cells after EGFR gene silencing; parameters: species or system human; conditions: [32P]-labeled aptamer at 100 nM, relative to scrambled aptamer
Protocol: EGFR gene silencing in NSCLC A549 cells was established by transfection of high performance short hairpin RNA (shRNA) specifically targeting EGFR (from Expression Arrest™ Human shRNA Collection, Open Biosystems, Huntsville, Ala.). Cells (3.5×10^5 cells per 6 cm plate) were grown and overlaid with the transfection mixtures containing the shRNA (6 μg) against EGFR (referred as shRNAEGFR) and Lipofectamine 2000 (Invitrogen, Carlsbad, Calif.) in Opti-MEM I reduced serum medium (Invitrogen). After 5 hours incubation, complete culture medium was added to the cells and incubation was prolonged up to 72 hs. […] For binding assays transfected cells were plated in 24 well plates after 24 hs from transfection.
Binding experiments were performed with 5′-[^32P]-labeled RNA. […]
as §3

A549 cells [7] = experiment: Binding of [32P]-labeled aptamer on A549 cells; parameters: species or system human
Protocol: as §2, §3

Question: Which “activation of caspase-3” value (caspase-3 [1]) does the source give for “CL4 42-81: 2′-fluoropyrimidine nuclease-resistant RNA aptamer of 39 nt: 5′ GCCUUAGUAACGUGCUUUGAUGUCGAUUCGACAGGAGGC 3′ (SEQ ID No. 1) (2'-fluoro at CU, RNA at AG, backbone not given here)” here?
Answer: strongly induce activation

Question: What about the “percentage of apoptotic cells (sub-G1 peak)” value (A549 cells [2]; A549, 24 hs) of the same substance?
Answer: about 30%

Question: What about the “percentage of apoptotic cells (sub-G1 peak)” value (A549 cells [2]; A549, 48 hs) of the same substance?
Answer: 40%

Question: And the “binding on T98G cells” value (glioma T98G)?
Answer: binds

Question: And the “binding on U87MG cells” value (glioma U87MG)?
Answer: does not bind

Question: And the “binding on Calu1 cells” value (Calu1 cells)?
Answer: binds

Question: And the “half life of the aptamer” value [3]?
Answer: 6 h

Question: What about the “binding on T47D cells” value (breast T47D) of the same substance?
Answer: does not bind

Question: And the “binding on H460 cells” value (H460 cells)?
Answer: does not bind

Question: What about the “extent of EGFR tyrosine phosphorylation in xenograft tumors” value (EGFR) of the same substance?
Answer: decreases

Question: What about the “caspase-3 activation in xenograft tumors” value (caspase-3 [4]) of the same substance?
Answer: activates

Question: What about the “binding on A431 cells” value [5] of the same substance?
Answer: binds

Question: What about the “sensitivity of A431 cell viability” value (A431 cells; 200 nM-final concentration, not shown) of the same substance?
Answer: same effect

Question: And the cell viability (A431 cells; A431, 24 hs, 200 nM final concentration, relative to untreated cells set to 100%)?
Answer: about 60%

Question: What about the “binding on SKBR3 cells” value (breast SKBR3) of the same substance?
Answer: binds

Question: What about the “activation of caspase-8” value (caspase-8) of the same substance?
Answer: strongly induce activation

Question: What about the “ability to bind to A549 cells upon decreased EGFR expression” value [6] of the same substance?
Answer: significantly reduced

Question: What about the “binding on A549 cells” value (A549 cells [7]; EGFR-positive, 100 nM) of the same substance?
Answer: binds

Question: What about the pKd (A549 cells [7]; binding to A549 target cells) of the same substance?
Answer: 7.42

Source: patent US9125930B2, “EGFR aptamer inhibitor for use in therapy and diagnosis” (CONSIGLIO NAZIONALE DELLE RICERCHE, priority 2010, dated 2015)
